We go through 13 compounds from the supplement of paper PMC4862054.

Details in all cases: incubation time: 72 h
Experiment [1] relates to BT-474. As to the kind of experiment: normalised viability (% of control), CellTiter-Blue; higher = more viable cells (about 100 = DMSO control). How it is done: (§1)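 DSRT, CellTiter-Blue viability, 72 h incubation. Signal is normalised to DMSO and benzethonium chloride controls. Value is the normalised response at dose 3.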
Background: Alamar Blue is a resazurin reagent that responds to reducing activity.

Experiment [2] concerns BT-549. The description is as above. How it is done:
as §1

The test system of experiment [3] is CAL-120. Described as above. Here is the method:
as §1

In experiment [4] the test system is CAL-148. The description is as above. Here is the method:
as §1

For experiment [5], the system named is CAL-51. Described as above. Here is the method:
as §1

In experiment [6] the test system is CAL-85-1. The experiment is described as above. How it is done: as §1
Experiment [7] deals with DU-4475. Described as above. How it is done: as §1
Experiment [8] concerns HCC1143. The experiment is described as above. Here is the method: as §1
Experiment [9] relates to HCC1599. The description is as above. Here is the method: as §1
For experiment [10], the system named is HCC1937. The description is as above. How it is done: as §1
Experiment [11] relates to HDQ-P1. Described as above. Here is the method:
as §1

In experiment [12] the test system is Hs578T. The description is as above. How it is done:
as §1

The subject of experiment [13] is MDA-MB-231. Described as above. Here is the method:
as §1

Experiment [14] has as its system MDA-MB-436. Described as above. How it is done:
as §1

The subject of experiment [15] is MDA-MB-453. The experiment is described as above. How it is done: as §1
The subject of experiment [16] is MDA-MB-468. The experiment is described as above. Here is the method: as §1
The test system of experiment [17] is MFM-223. The description is as above. How it is done: as §1
The subject of experiment [18] is SK-BR-3. Described as above. Here is the method:
as §1

For experiment [19], the system named is CAL-120. As to the kind of experiment: drug sensitivity score (DSS), CellTiter-Blue viability (DSS (AUC-based score)); higher = stronger viability inhibition; extreme values may be limits of the assay. How it is done:
(§2)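 DSRT with the CellTiter-Blue (resazurin reduction) viability readout, fluorescence 560/590 nm, 72 h incubation. Plates were normalised to DMSO and benzethonium chloride controls. DSS is computed from the area under the fitted dose-response curve (5 or 9 concentrations).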

Experiment [20] deals with HCC1143. Described as above. How it is done:
as §2

Experiment [21] has as its system HCC1599. Described as above. How it is done: as §2
Experiment [22] deals with MDA-MB-436. Described as above. Here is the method: as §2
Experiment [23] relates to MDA-MB-453. Described as above. How it is done: as §2
The subject of experiment [24] is SK-BR-3. Described as above. How it is done:
as §2

For experiment [25], the system named is DU-4475. In words: drug sensitivity score (DSS), CellTiter-Glo (DSS (AUC-based score)); higher = stronger drug effect (viability inhibition or cytotoxicity); extreme values may be limits of the assay. The method, boiled down:
(§3)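 Using 20 µl of cell suspension per well, breast cancer cell lines were seeded into 384-well plates pre-loaded with compound at 5 concentrations in 10-fold steps across a compound-specific 10,000-fold range. Incubation lasted 72 h, after which CellTox Green fluorescence at 485/520 nm and then CellTiter-Glo luminescence, following 10 min at room temperature, were recorded. Each plate was normalised to 0.1 % DMSO and a positive kill control before the drug sensitivity score was derived from the area under the fitted dose-response curve.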
Background: ATP-based viability assays read luminescence as a measure of living cells.

Experiment [26] concerns HDQ-P1. Described as above. The method, boiled down:
as §3

Experiment [27] concerns MDA-MB-468. Described as above. The method in brief:
as §3

As for `CCNC(=O)c1noc(-c2cc(C(C)C)c(O)cc2O)c1-c1ccc(CN2CCOCC2)cc1` [NVP-AUY922], the normalised viability in experiment [1] (10 nM) is 86.1%; in experiment [2] (10 nM), 42.2%; in experiment [3] (10 nM), 46.6%; in experiment [4] (1 nM), 103%; in experiment [5] (1 nM), 102%; in [6] (1 nM), 96%. Further, the normalised viability in experiment [7] (1 nM) is 115%; in [8] (10 nM) it was 100%; in experiment [9] (10 nM), 112%; in [10] (10 nM), 37.8%; in experiment [11] (1 nM) it was 132%; in [12] (10 nM), 37.3%. In addition, the normalised viability in [13] (10 nM) was found to be 56.5%; in experiment [14] (10 nM), 58.5%; in [15] (1 nM), 119%; in experiment [16] (10 nM), 51.6%; in [17] (10 nM) it was 41.1%; in experiment [18] (10 nM) it was 34.9%. Besides, the drug sensitivity score in [19] came out at 21.3; in experiment [20] it was 9.99; in experiment [21], 9.96; in [22], 20.7; in experiment [23], 20.8; in experiment [24], 22.8. The drug sensitivity score in [25] stood at 17.8; in experiment [26], 17.4; in [27], 21.8.

Consider `CC1(C)CCC(c2ccc(Cl)cc2)=C(CN2CCN(c3ccc(C(=O)NS(=O)(=O)c4ccc(N[C@H](CCN5CCOCC5)CSc5ccccc5)c(S(=O)(=O)C(F)(F)F)c4)cc3)CC2)C1` [Navitoclax], for which the normalised viability in [1] (100 nM) is 97.3%; in experiment [2] (100 nM), 97.2%; in experiment [3] (100 nM), 61.3%; in experiment [4] (10 nM), 87%; in experiment [5] (10 nM), 105%; in experiment [6] (10 nM), 88.2%. In addition, the normalised viability in experiment [7] (10 nM) was found to be 86.9%; in experiment [8] (100 nM), 75.3%; in [9] (100 nM), 93.5%; in experiment [10] (100 nM), 96.3%; in [11] (10 nM) it was 87.4%; in experiment [12] (100 nM) it was 78.2%. The normalised viability in experiment [13] (100 nM) is 71.9%; in experiment [14] (100 nM), 89.2%; in [15] (10 nM), 84.3%; in experiment [16] (100 nM), 84.2%; in [17] (100 nM), 75.5%; in experiment [18] (100 nM) it was 58.8%. Moreover, the drug sensitivity score in [19] worked out at 6.12; in experiment [20] it was 0; in experiment [21], 5.97; in [22] it was 0; in experiment [23], 0; in experiment [24] it was 0. Also, the drug sensitivity score in experiment [25] was 1.89; in [26], 4.94; in experiment [27], 4.81.

In the case of `Cc1nc(C(=O)NCC(=O)O)c(O)c2ccc(Oc3ccccc3)cc12` [FG-4592], the drug sensitivity score in [25], in experiment [26] and in experiment [27] was 0 throughout.

Regarding `CCn1c(C(=O)N(C2CC2)C2CC2)cc2c3c(ncn3C)c(Nc3cc(C)n(C)n3)nc21`, the drug sensitivity score is 0 in experiment [25], 0 in experiment [26] and 0.0233 in experiment [27].

For the compound `O=[N+]([O-])c1ccc2c(c1)S(=O)(=O)C=C2` [Stattic], the results for the drug sensitivity score in experiment [25], in experiment [26] and in experiment [27] were 5.46, 6.75 and 24.4, respectively.

For the compound `CC(C)(C)c1nc(-c2cccc(NS(=O)(=O)c3c(F)cccc3F)c2F)c(-c2ccnc(N)n2)s1` [Dabrafenib], the drug sensitivity score in [25] came to 19; in [26], 0; in [27], 0.

Regarding `C=CCN(/C=C1/C(=O)O[C@H](COC)[C@@]2(C)C1=C(O)C(=O)C1=C2[C@H](OC(C)=O)C[C@]2(C)C(=O)CC[C@@H]12)CC=C` [Sonolisib], the drug sensitivity score in [25], in experiment [26] and in experiment [27] was 0 in each case.

With `CC[C@H](CO)Nc1nc(NCc2ccccc2)c2ncn(C(C)C)c2n1` [Seliciclib], the drug sensitivity score in experiment [25], in [26] and in experiment [27] was 0 throughout.

Take `O=C(O)CNC(=O)c1c(O)c2ccccc2n(Cc2ccccc2)c1=O` [IOX-2]: the drug sensitivity score in [25], in experiment [26] and in [27] was 0 each time.

Take `CC1(COc2ccc3c(c2)ncn3-c2ccc3cccc(N4CCC(N)CC4)c3n2)COC1` [Crenolanib]: the drug sensitivity score in experiment [25] was found to be 4.23; in experiment [26], 3.33; in [27] it was 3.61.

Regarding `CC[C@H](CO)Nc1nc(NCc2ccccc2)c2ncn(C(C)C)c2n1` [Roscovitine], the normalised viability was 94.9% in experiment [1] (100 nM); 98.5% in experiment [2] (100 nM); 82.7% in experiment [3] (100 nM); 88.8% in experiment [4] (10 nM); 104% in experiment [5] (10 nM); 101% in experiment [6] (10 nM). Also, the normalised viability came to 104% in experiment [7] (10 nM); 83.4% in experiment [8] (100 nM); 116% in experiment [9] (100 nM); 97.3% in experiment [10] (100 nM); 120% in experiment [11] (10 nM); 91.1% in experiment [12] (100 nM). For the same compound, the normalised viability in experiment [13] (100 nM) turned out to be 88.5%; in experiment [14] (100 nM) it was 96.5%; in [15] (10 nM), 106%; in experiment [16] (100 nM), 108%; in experiment [17] (100 nM), 89%; in [18] (100 nM), 73.1%. The drug sensitivity score in experiment [19] was 0; in experiment [20], 5.44; in experiment [21], 2.39; in experiment [22] it was 0.894; in experiment [23], 0; in [24], 0.

On to `CC(C)n1cnc2c(NCCc3ccc(O)cc3)nc(-c3csc4ccccc34)nc21` [StemRegenin 1], for which the drug sensitivity score in experiment [25] came out at 0; in experiment [26], 1.2; in experiment [27] it was 0.986.

Regarding `CN(C)C(=N)NC(=N)N` [Metformin], the drug sensitivity score in experiment [25] was 0; in experiment [26], 0; in experiment [27], 0.63.
